Test results: patent US10588317B2, “Isoxazoline-substituted benzamides and analogues as insecticides” (priority 2015, dated 2020)
Read-outs that look alike come from different tables or passages of the source.

What was measured:
Type in all cases: in vivo
Tetranychus urticae = Tetranychus urticae (two-spotted spider mite): feeding/contact activity; details: 192 h, application rate 200 ppm, mixed population (mobile stages), 8 days after infestation, read-out: mortality
Protocol: Bean leaf discs on agar in 24-well microtiter plates were sprayed with aqueous test solutions prepared from 10'000 ppm DMSO stock solutions. After drying the leaf discs were infested with a mite population of mixed ages. The samples were assessed for mortality on mixed population (mobile stages) 8 days after infestation.

Diabrotica balteata = Diabrotica balteata (corn root worm), sprayed maize sprouts; details: 96 h, application rate 200 ppm, L2 larvae, 4 days after infestation, read-out: effect in at least one of the two categories (mortality or growth inhibition)
Protocol: Maize sprouts placed onto an agar layer in 24-well microtiter plates were treated with aqueous test solutions prepared from 10'000 ppm DMSO stock solutions by spraying. After drying, the plates were infested with L2 larvae (6 to 10 per well). The samples were assessed for mortality and growth inhibition in comparison to untreated samples 4 days after infestation.
(§1) The following compounds gave an effect of at least 80% in at least one of the two categories (mortality or growth inhibition) at an application rate of 200 ppm: […]

Spodoptera littoralis = Spodoptera littoralis (Egyptian cotton leaf worm), sprayed cotton leaf discs; details: foliar, 72 h, read-out: control (mortality, anti-feeding effect, growth inhibition)
Protocol: Cotton leaf discs were placed onto agar in 24-well microtiter plates and sprayed with aqueous test solutions prepared from 10'000 ppm DMSO stock solutions. After drying the leaf discs were infested with five L1 larvae. The samples were assessed for mortality, anti-feeding effect, and growth inhibition in comparison to untreated samples 3 days after infestation. Control of Spodoptera littoralis by a test sample is given when at least one of the categories mortality, anti-feedant effect, and growth inhibition is higher than the untreated sample.

Plutella xylostella = Plutella xylostella (diamond back moth), artificial diet; details: 120 h, read-out: effect in at least one of the two categories (mortality or growth inhibition); for percent effect (mortality or growth inhibition) at 200 ppm: application rate 200 ppm, L2 larvae, 5 days after infestation
Protocol: 24-well microtiter plates with artificial diet were treated with aqueous test solutions prepared from 10'000 ppm DMSO stock solutions by pipetting. After drying, the plates were infested with L2 larvae (10 to 15 per well). The samples were assessed for mortality and growth inhibition in comparison to untreated samples 5 days after infestation.
as §1

Thrips tabaci = Thrips tabaci (onion thrips): feeding/contact activity; details: 144 h
Protocol: Sunflower leaf discs were placed on agar in 24-well microtiter plates and sprayed with aqueous test solutions prepared from 10'000 ppm DMSO stock solutions. After drying the leaf discs were infested with a Thrips population of mixed ages. The samples were assessed for mortality 6 days after infestation.

[1] = application rate 200 ppm, L1 larvae, 3 days after infestation
[2] = application rate 200 ppm, Thrips population of mixed ages, 6 days after infestation, read-out: mortality

Cc1cc(C2=NOC(c3cc(C(F)(F)F)ccn3)(C(F)(F)F)C2)ccc1C(=O)N[C@H]1CON(S(C)(=O)=O)C1 (stereo partly shown) [Compound A222]
≥ 80%: mortality at 200 ppm (Tetranychus urticae) | percent effect (mortality or growth inhibition) at 200 ppm (Diabrotica balteata) | mortality at 200 ppm (Spodoptera littoralis; [1]) | percent effect (mortality or growth inhibition) at 200 ppm (Plutella xylostella)

CS(=O)(=O)N1CC(NC(=O)c2ccc(C3=NOC(c4cc(Cl)cc(Cl)c4)(C(F)(F)F)C3)c3ncccc23)CO1 (stereo not shown) [Compound A56]
≥ 80%: mortality at 200 ppm (Spodoptera littoralis; [1]) | percent effect (mortality or growth inhibition) at 200 ppm (Plutella xylostella)

CS(=O)(=O)N1CC(NC(=O)c2ccc(C3=NOC(c4cc(Cl)cc(Cl)c4)(C(F)(F)F)C3)cc2C#N)CO1 (stereo not shown) [Compound A47]
≥ 80%: mortality at 200 ppm (Spodoptera littoralis; [1])

C=CS(=O)(=O)N1C[C@@H](NC(=O)c2ccc(C3=NO[C@@](c4cc(Cl)c(F)c(Cl)c4)(C(F)(F)F)C3)cc2C)CO1 [Compound A193, 4-[(5S)-5-(3,5-dichloro-4-fluorophenyl)-5-(trifluoromethyl)-4H-1,2-oxazol-3-yl]-N-[(4R)-2-ethenylsulfonyl-1,2-oxazolidin-4-yl]-2-methylbenzamide]
≥ 80%: mortality at 200 ppm (Tetranychus urticae) | mortality at 200 ppm (Thrips tabaci; [2]) | mortality at 200 ppm (Spodoptera littoralis; [1]) | percent effect (mortality or growth inhibition) at 200 ppm (Plutella xylostella)

Cc1cc(C2=NO[C@@](c3ccc(C(F)(F)F)c(F)c3)(C(F)(F)F)C2)ccc1C(=O)N[C@H]1CON(S(C)(=O)=O)C1 [Compound A170]
≥ 80%: mortality at 200 ppm (Tetranychus urticae) | percent effect (mortality or growth inhibition) at 200 ppm (Diabrotica balteata) | mortality at 200 ppm (Thrips tabaci; [2]) | mortality at 200 ppm (Spodoptera littoralis; [1]) | percent effect (mortality or growth inhibition) at 200 ppm (Plutella xylostella)

Cc1cc(C2=NOC(c3ccc(OC(F)(F)F)cc3)(C(F)(F)F)C2)ccc1C(=O)NC1CON(S(C)(=O)=O)C1 (stereo not shown) [Compound A53]
≥ 80%: mortality at 200 ppm (Tetranychus urticae) | percent effect (mortality or growth inhibition) at 200 ppm (Diabrotica balteata) | mortality at 200 ppm (Spodoptera littoralis; [1]) | percent effect (mortality or growth inhibition) at 200 ppm (Plutella xylostella)

CNS(=O)(=O)N1C[C@H](NC(=O)c2ccc(C3=NO[C@@](c4ccc(C(F)(F)F)c(F)c4)(C(F)(F)F)C3)cc2C)CO1 [Compound A182]
≥ 80%: mortality at 200 ppm (Tetranychus urticae) | percent effect (mortality or growth inhibition) at 200 ppm (Diabrotica balteata) | mortality at 200 ppm (Thrips tabaci; [2]) | mortality at 200 ppm (Spodoptera littoralis; [1]) | percent effect (mortality or growth inhibition) at 200 ppm (Plutella xylostella)

Cc1cc(C2=NO[C@](c3cc(Cl)cc(Cl)c3)(C(F)(F)F)C2)ccc1C(=O)N[C@H]1CON(S(=O)(=O)CCBr)C1 [Compound A177, N-[(4R)-2-(2-bromoethylsulfonyl)-1,2-oxazolidin-4-yl]-4-[(5R)-5-(3,5-dichlorophenyl)-5-(trifluoromethyl)-4H-1,2-oxazol-3-yl]-2-methylbenzamide]
≥ 80%: mortality at 200 ppm (Thrips tabaci) | mortality at 200 ppm (Spodoptera littoralis) | percent control (mortality or growth inhibition) at 200 ppm (Plutella xylostella)

Cc1nc(C2=NOC(c3cc(Cl)cc(Cl)c3)(C(F)(F)F)C2)ccc1C(=O)NC1CON(S(C)(=O)=O)C1 (stereo not shown) [Compound A237]
≥ 80%: percent effect (mortality or growth inhibition) at 200 ppm (Diabrotica balteata) | mortality at 200 ppm (Spodoptera littoralis; [1]) | percent effect (mortality or growth inhibition) at 200 ppm (Plutella xylostella)

Cc1cc(Cl)cc(C2(C(F)(F)F)CC(c3ccc(C(=O)NC4CON(S(C)(=O)=O)C4)c(C)c3)=NO2)c1 (stereo not shown) [Compound A51]
≥ 80%: mortality at 200 ppm (Tetranychus urticae) | percent effect (mortality or growth inhibition) at 200 ppm (Diabrotica balteata) | mortality at 200 ppm (Thrips tabaci; [2]) | mortality at 200 ppm (Spodoptera littoralis; [1]) | percent effect (mortality or growth inhibition) at 200 ppm (Plutella xylostella)

Cc1cc(C2=NOC(c3ccc(Br)cc3)(C(F)(F)F)C2)ccc1C(=O)NC1CON(S(C)(=O)=O)C1 (stereo not shown) [Compound A55]
≥ 80%: mortality at 200 ppm (Tetranychus urticae) | percent effect (mortality or growth inhibition) at 200 ppm (Diabrotica balteata) | mortality at 200 ppm (Thrips tabaci; [2]) | mortality at 200 ppm (Spodoptera littoralis; [1]) | percent effect (mortality or growth inhibition) at 200 ppm (Plutella xylostella)

C=CS(=O)(=O)N1C[C@H](NC(=O)c2ccc(C3=NO[C@@](c4cc(Cl)cc(Cl)c4)(C(F)(F)F)C3)cc2C)CO1 [Compound A175]
≥ 80%: mortality at 200 ppm (Spodoptera littoralis; [1])

CS(=O)(=O)N1CC(NC(=O)c2ccc(C3=NOC(c4cc(Cl)cc(Cl)c4)(C(F)(F)F)C3)cn2)CO1 (stereo not shown) [Compound A238]
≥ 80%: mortality at 200 ppm (Spodoptera littoralis; [1])
